pIC50: −log10 of the molar value. Values joined by “and” are separate entries in the source; they are usually repeats but may differ in a detail not shown here. Equal values may be shown once. Read-outs that look alike come from different tables or passages of the source. One block for each compound: values may come before it.
Legend:
OATP2B1 [1] = biological target: T1, OATP2B1 (Homo sapiens, UniProt O94956); test: Inhibition of OATP2B1-mediated pyranine uptake in A431 cells; assay type: cell-based; conditions: for inhibition at 15 min, 25 μM: human, A431 cells overexpressing OATP2B1, pH 5.5, probe pyranine, 20 μM, read-out: inhibition / reduction of OATP2B1 transport activity; for inhibition at 15 min, 25 μM / inhibition of OATP2B1 in words: 25 μM flavonoid; for pIC50: 15 min, uptake buffer pH 5.5, A431-OATP2B1 cells; for inhibitory strength on OATP2B1 relative to A4′S: ratio of IC50 values
T1 construct: expressed in transfected cells; host or cells: A431
T1 sequence (O94956 1-709): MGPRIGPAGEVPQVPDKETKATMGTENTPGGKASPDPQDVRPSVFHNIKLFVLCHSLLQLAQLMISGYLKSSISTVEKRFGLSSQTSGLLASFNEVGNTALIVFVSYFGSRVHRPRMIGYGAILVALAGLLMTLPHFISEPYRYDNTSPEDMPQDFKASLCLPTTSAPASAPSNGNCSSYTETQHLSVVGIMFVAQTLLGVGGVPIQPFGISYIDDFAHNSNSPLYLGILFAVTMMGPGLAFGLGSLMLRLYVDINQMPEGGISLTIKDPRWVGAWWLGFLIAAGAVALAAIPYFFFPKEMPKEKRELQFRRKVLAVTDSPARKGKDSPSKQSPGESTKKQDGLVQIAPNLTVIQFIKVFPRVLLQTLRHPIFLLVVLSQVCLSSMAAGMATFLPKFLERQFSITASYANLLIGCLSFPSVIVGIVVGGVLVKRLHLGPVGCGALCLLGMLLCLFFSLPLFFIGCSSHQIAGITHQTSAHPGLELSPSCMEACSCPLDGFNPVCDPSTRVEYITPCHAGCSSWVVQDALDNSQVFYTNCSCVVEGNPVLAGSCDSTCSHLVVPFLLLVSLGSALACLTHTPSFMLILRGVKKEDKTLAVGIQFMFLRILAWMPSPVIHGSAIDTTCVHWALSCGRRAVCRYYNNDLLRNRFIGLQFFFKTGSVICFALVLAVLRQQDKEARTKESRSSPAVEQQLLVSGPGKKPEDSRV
Procedure: Human A431 cells overexpressing OATPs (OATP1B1 or OATP2B1) and their mock‐transfected controls were established earlier.[42], [43] The cells were maintained at 37°C with 5% CO2 in Dulbecco's Modified Eagle Medium (DMEM; Thermo Fischer Scientific, Waltham, MA, USA) supplemented with fetal bovine serum (10%), L‐glutamine (2 mM), penicillin (100 units/mL) and streptomycin (100 μg/mL).
The inhibitory impacts of MYR, AMP, and their sulfate metabolites on OATP1B1 and OATP2B1 were examined using the fluorescent dye substrates disulfopyrene (6,8‐dihydroxy‐1,3‐disulfopyrene) and pyranine, respectively.[42], [43] The day before the transport measurements, A431 cells overexpressing OATP1B1 or OATP2B1 (and their mock‐transfected controls) were seeded onto 96‐well plates at a density of 80 000 cells/well in DMEM (200 μL). Next day, the medium was removed, the cells were washed three times with PBS (pH 7.4, 200 μL) at room temperature, then the cells were pre‐incubated with 50 μL of Hank's Balanced Salt Solution (HBSS, pH 7.4; OATP1B1) or uptake buffer (pH 5.5; OATP2B1) for 5 min at 37°C with or without the flavonoids.[43] The transport reaction was started by adding 50 μL of disulfopyrene‐containing (final concentration: 10 μM) HBSS (OATP1B1 assay), or pyranine‐containing (final concentration: 20 μM) uptake buffer (OATP2B1 assay). After 10 min (OATP1B1) or 15 min (OATP2B1), the transport was stopped by removing the supernatant and washing the cells three times with ice‐cold PBS (200 μL). Then the fluorescence was measured in 200 μL of PBS using an Enspire plate reader (PerkinElmer, Waltham, MA, US) at excitation and emission wavelengths of 460/510 nm. OATP‐dependent transport was determined by subtracting the fluorescence detected in mock control cells from that of OATP‐expressing cells. Transport activity was measured based on the fluorescence signal in the absence of flavonoids (100%).

[2] = cited from earlier work
CYP2C19 = tested on: T2, CYP2C19; test: CYP2C19 assay ((S)‐mephenytoin hydroxylation), CypExpress human kit; assay type: biochemical; conditions: probe (S)‐mephenytoin, 20 μM flavonoid, 5 μM substrate, read-out: inhibitory action on CYP2C19‐mediated (S)‐mephenytoin hydroxylation
T2 construct: purchased Merck (Darmstadt, Germany)
Procedure: The isocratic elution was carried out with sodium acetate buffer (6.9 mM, pH 4) and acetonitrile (72:28 v/v%) as the mobile phase. (S)‐Mephenytoin and 4‐hydroxymephenytoin were detected at 230 nm.

[3] = parameters: method as in PMID 26032587; conditions: double‐blind randomized controlled clinical trial; cited from earlier work
[4] = cited from earlier work; remark: listed apart in the source
OATP2B1 [5] = tested on: OATP2B1; parameters: method as in PMID 37252098, PMID 28745105; conditions: cited from earlier work
OATP1B1 = conditions: cited from earlier work
[6] = pyranine 20 μM, read-out: IC50, OATP2B1

- inhibition at 15 min, 25 μM (OATP2B1 [1]): 90%
- pIC50 (OATP2B1 [1]; [6]): 5.67 and 5.66
Compound: O=C1c2c(O)cc(O)cc2OC(c2cc(O)c(OS(=O)(=O)O)c(O)c2)C1O (centres unmarked) [A4′S, ampelopsin‐4′‐O‐sulfate]

- inhibition at 15 min, 25 μM (OATP2B1 [1]): ~70%
- inhibition at 20 μM (CYP2C19): 5%
Compound: O=C1c2c(O)cc(O)cc2O[C@H](c2cc(O)c(O)c(O)c2)[C@H]1O [AMP, ampelopsin]
- oral bioavailability ([2]; AMP, rat studies): approximately 4%
- peak plasma concentrations of the aglycone ([2]; rats, peroral 100 mg/kg AMP): 300 to 500 nM
- effect in patients with nonalcoholic fatty liver disease [3]: improved glucose and lipid metabolism

- inhibition of OATP2B1 in words (OATP2B1 [1]): almost completely blocked
- pIC50 (OATP2B1 [1]; [6]): 6.54 and 6.52
- inhibitory strength on OATP2B1 relative to A4′S (OATP2B1 [1]): seven‐fold
Compound: O=c1c(O)c(-c2cc(O)c(O)c(OS(=O)(=O)O)c2)oc2cc(O)cc(O)c12 [M3′S, myricetin‐3′‐O‐sulfate]

Compound: O=c1c(O)c(-c2cc(O)c(O)c(O)c2)oc2cc(O)cc(O)c12 [MYR, myricetin]
- effect on plasma levels of tolbutamide (CYP2C9 substrate) and midazolam (CYP3A4 substrate) ([4]; rat experiment): increased the plasma levels of tolbutamide
- effect of peroral co‐administration on docetaxel pharmacokinetics ([4]; rat study): increased the oral bioavailability and peak plasma concentration of the drug
- oral bioavailability ([2]; MYR, rats): less than 10%
- peak plasma concentrations of MYR and its (sulfate and glucuronide) metabolites together ([2]; rats, per os 100 mg/kg MYR): 8 µM
- inhibition of OATP2B1 in words (OATP2B1 [1]): almost completely blocked
- pIC50 (OATP2B1 [1]; IC50, OATP2B1, pyranine 20 μM): 6.37 and 6.40
- inhibitory strength on OATP2B1 relative to A4′S (OATP2B1 [1]): five‐fold
- inhibitory effects on OATP2B1‐dependent transport of 4′,5′‐dibromofluorescein and estrone 3‐sulfate (OATP2B1 [5]): only weak inhibitory effects
- decrease in the OATP1B1‐mediated transport of dehydroepiandrosterone sulfate and fluvastatin (OATP1B1; 50 μM MYR): approximately 35%
- pIC50 (OATP1B1; read-out: IC50, OATP1B1, 2′,7′‐dichlorofluorescein uptake): 5.24

Reference: publication PMC11440035, “Interaction of myricetin, ampelopsin (dihydromyricetin), and their sulfate metabolites with serum albumin, cytochrome P450 (CYP2C9, 2C19, and 3A4) enzymes, and organic anion‐transporting polypeptides (OATP1B1 and OATP2B1)” (Pharmacology Research & Perspectives, 2024)
